From patent US20160214926A1, “DIPHENYLOXYALKYLAMINE DERIVATIVES AND ARYLOXYALKYLAMINE DERIVATIVES, PHARMACEUTICAL COMPOSITION, USE OF SAID PHARMACEUTICAL COMPOSITION FOR TREATING, PREVENTING OR INHIBITING CHRONIC PULMONARY INFLAMMATORY DISEASES AND METHOD FOR TREATING OR PREVENTING SUCH DISEASES” (FUNDACAO OSWALDO CRUZ, priority 2013, published 2016) come the findings set out here.

The subject of this assay is A/J mice. Nature of the assay: Ovalbumin asthma model: airway hyperreactivity, leukocyte infiltration, cytokines (nebulization). The note with it: for airway hyperreactivity (lung resistance and elastance after methacholine): nebulization 2% for 30 minutes, OVA sensitized and challenged. Type of assay: in vivo. On the procedure:
Male A/J mice (18-20 g), coming from the Laboratory Animal Breeding Center of Oswaldo Cruz Foundation, were used in the experiments. The animals were previously sensitized with a mixture of ovalbumin (OVA) (50 μg) (Grade V; Sigma, St. Louis, Mo., USA) and aluminum hydroxide (5 mg) administered subcutaneously on day 0 with boost on day 14 (equal suspension administered intraperitoneally). Nasal instillations of OVA (25 μg/25 μl in sterile 0.9% NaCl) were administered on days 14, 21, 28 and 35, with the hyperresponsiveness analysis performed 24 hours after the last challenge. […] That is, the treatments took place after the installation of asthma framework, reflecting a therapeutic action of the respective compounds analyzed.
The effect of the treatments on bronchial hyperreactivity was investigated by measuring the resistance changes and pulmonary elastance, using invasive barometric plethysmography whole-body system (Buxco, USA), as previously described (Olsen et al., 2012).

For the compound `CC(N)COc1cccc(I)c1.Cl` (stereo not drawn) [JME-141], the “airway hyperreactivity (lung resistance and elastance after methacholine)” value was “abolished”.

As for `CC(N)COc1ccc(F)c(Cl)c1.Cl` (stereo not drawn) [JME-188], the “airway hyperreactivity (lung resistance and elastance after methacholine)” value is listed as “abolished”. For the same compound, where the note is “nebulization 2%”, the “IL-5 generation in lung tissue” value is on record as “equally sensitive”, the “IL-13 generation in lung tissue” value was “equally sensitive”, the “eotaxin-2 generation in lung tissue” value was “inhibited” and the “increased production of eotaxin-1” value is recorded as “failed to modify”.
